For the experiment, the target named is Carbonic anhydrase 9 (Homo sapiens, UniProt Q16790). The experiment in a line: Inhibition of recombinant human carbonic anhydrase 9 incubated for 15 mins by stopped flow CO2 hydrase assay.

As a reminder, the Ki is a measure of affinity in units of concentration, obtained from inhibition or displacement.

Structures are written as SMILES.

In the case of `N#C[Se]c1ccc(S(N)(=O)=O)cc1`, the Ki was determined as 9.3 nM.

Turning to `CC(C)OCC(O)C[Se]c1ccc(S(N)(=O)=O)cc1` (stereo not drawn), the Ki was 15.9 nM.

Regarding `NS(=O)(=O)c1ccc([Se][Se]c2ccc(S(N)(=O)=O)cc2)cc1`, the Ki worked out at 2.7 nM.

As for `Cc1ccc(S(=O)(=O)N[C@H](C[Se]c2ccc(S(N)(=O)=O)cc2)C(C)C)cc1`, the Ki was 10.1 nM.

Take `C=C(C)[C@@H]1CCC(C)(O)C([Se]c2ccc(S(N)(=O)=O)cc2)C1` (stereo partly drawn): the Ki worked out at 2.4 nM.

Turning to `CC(C)[C@@H](C[Se]c1ccc(S(N)(=O)=O)cc1)NC(=O)OC(C)(C)C`, the Ki amounted to 2.3 nM.

Regarding `CCCCC(O)C[Se]c1ccc(S(N)(=O)=O)cc1` (stereo not drawn), the Ki worked out at 5.6 nM.

`Cc1ccc(S(=O)(=O)N[C@H](C[Se]c2ccc(S(N)(=O)=O)cc2)Cc2ccccc2)cc1`: the Ki was found to be 2.4 nM.

On to `C=CCOCC(O)C[Se]c1ccc(S(N)(=O)=O)cc1` (stereo not drawn), for which the Ki was determined as 11.9 nM.

`NS(=O)(=O)c1ccc([Se]C2CCCCC2O)cc1` (stereo not drawn): the Ki was determined as 8.3 nM.

Take `CC(C)[C@H](N)C[Se]c1ccc(S(N)(=O)=O)cc1`: the Ki is 2.4 nM.

Take `NS(=O)(=O)c1ccc([Se]CC(O)CBr)cc1` (stereo not drawn): the Ki amounted to 6.5 nM.

With `NS(=O)(=O)c1ccc([Se]CC(O)COCc2ccccc2)cc1` (stereo not drawn), the Ki is 10.1 nM.

The values above are taken from ChEMBL document CHEMBL4130589, “Synthesis of Novel Selenides Bearing Benzenesulfonamide Moieties as Carbonic Anhydrase I, II, IV, VII, and IX Inhibitors” (ACS Med Chem Lett, 2017).
